Our source for the Ki values is ChEMBL document CHEMBL1132838, “Determination of the relative and absolute stereochemistry of a potent and alpha1A-selective adrenoceptor antagonist” (Bioorg Med Chem Lett, 2000).

The target of assay [1] is T1, Alpha-1D adrenergic receptor (Homo sapiens, UniProt P25100).
T1 sequence (P25100 whole entry): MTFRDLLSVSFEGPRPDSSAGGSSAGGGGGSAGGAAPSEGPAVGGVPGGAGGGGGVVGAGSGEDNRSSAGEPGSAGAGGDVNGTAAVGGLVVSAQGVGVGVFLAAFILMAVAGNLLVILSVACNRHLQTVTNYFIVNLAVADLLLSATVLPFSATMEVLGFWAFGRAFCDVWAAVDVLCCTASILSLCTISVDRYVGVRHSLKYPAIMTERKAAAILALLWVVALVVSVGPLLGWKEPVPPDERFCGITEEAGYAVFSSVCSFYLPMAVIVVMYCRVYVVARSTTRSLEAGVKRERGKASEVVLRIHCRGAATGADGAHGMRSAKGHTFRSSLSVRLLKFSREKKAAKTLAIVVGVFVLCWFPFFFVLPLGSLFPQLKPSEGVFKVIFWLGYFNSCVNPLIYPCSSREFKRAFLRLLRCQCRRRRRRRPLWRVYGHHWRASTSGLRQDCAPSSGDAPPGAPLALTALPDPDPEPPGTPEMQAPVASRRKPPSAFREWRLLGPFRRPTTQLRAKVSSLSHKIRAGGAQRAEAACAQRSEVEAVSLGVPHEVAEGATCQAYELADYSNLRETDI
Kind of assay: Tested for binding affinity against recombinant human Alpha-1D adrenergic receptor using [125I]-HEAT in competition binding assay.

Assay [2] concerns the target T2, Alpha-1B adrenergic receptor (Homo sapiens, UniProt P35368).
T2 sequence (P35368 whole entry): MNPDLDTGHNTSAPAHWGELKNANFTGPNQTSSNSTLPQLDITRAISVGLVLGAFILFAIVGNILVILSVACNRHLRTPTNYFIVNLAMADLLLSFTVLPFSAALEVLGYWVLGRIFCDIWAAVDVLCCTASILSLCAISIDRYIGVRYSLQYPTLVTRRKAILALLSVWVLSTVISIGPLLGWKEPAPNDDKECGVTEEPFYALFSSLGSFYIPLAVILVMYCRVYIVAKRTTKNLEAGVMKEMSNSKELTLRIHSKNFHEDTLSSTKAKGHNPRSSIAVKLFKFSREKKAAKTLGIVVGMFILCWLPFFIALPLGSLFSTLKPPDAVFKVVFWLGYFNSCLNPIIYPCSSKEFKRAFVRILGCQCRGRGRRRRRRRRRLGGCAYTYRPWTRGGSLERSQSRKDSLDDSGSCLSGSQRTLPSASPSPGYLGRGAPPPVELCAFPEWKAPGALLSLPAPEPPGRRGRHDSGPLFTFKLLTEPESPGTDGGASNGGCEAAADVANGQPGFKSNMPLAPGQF
Kind of assay: Tested for binding affinity against recombinant human Alpha-1B adrenergic receptor using [125I]HEAT in competition binding assay.

For the compound `C[C@H]1OC(=O)N(C(=O)NCCCN2CCC(c3ccc(F)cc3)CC2)[C@@H]1c1ccc(F)c(F)c1`, the values for the Ki in assay [1] and in assay [2] were 0.193 µM and 0.074 µM, respectively. Regarding `C[C@@H]1OC(=O)N(C(=O)NCCCN2CCC(c3ccc(F)cc3)CC2)[C@@H]1c1ccc(F)c(F)c1`, the Ki in assay [2] is 0.076 µM.

Turning to `C[C@H]1OC(=O)N(C(=O)NCCCN2CCC(c3ccc(F)cc3)CC2)[C@H]1c1ccc(F)c(F)c1`, the Ki was determined as 0.092 µM in assay [1] and 0.048 µM in assay [2].

Broadly, the Ki is the equilibrium dissociation constant of an inhibitor or competing ligand from its target.
